Activity, IC50 and inhibition data for 18 compounds are collected here from ChEMBL document CHEMBL3352650, “Investigation of podophyllotoxin esters as potential anticancer agents: synthesis, biological studies and tubulin inhibition properties” (Eur J Med Chem, 2015).

Assay [1] addresses T1, Tubulin (Homo sapiens) (UniProt P68371+Q9H4B7+P0DPH7+P68366+Q13509+Q71U36+P04350+Q3ZCM7+P07437+P68363+Q9BQE3+Q6PEY2+Q13885+Q9BVA1+Q9BUF5). The assay can be described thus: Inhibition of tubulin polymerization in human DU145 cells assessed as reduction of Akt phosphorylation at Ser473 at 2 to 5 uM after 48 hrs by Western blotting analysis. Format: cell-based. Particulars: DU-145.

Assay [2] has as its system DU-145. Briefly: Cell cycle arrest in human DU145 cells assessed as accumulation at S phase at 2 uM after 48 hrs by propidium iodide staining-based flow cytometric analysis (reference value: 5.88%). Format: functional. On the technique in general: In flow cytometry, cells or beads pass a laser one at a time.
Another assay deals with A549. Briefly: Cytotoxicity against human A549 cells after 48 hrs by MTT assay. Format: functional, cell-based. Particulars: A549, 48 h.
Assay [3] relates to DU-145. The assay can be described thus: Cytotoxicity against human DU145 cells assessed as inhibition of colony formation at 5 uM after 3 days by microscopy. It counts as functional, cell-based.
The subject of assay [4] is DU-145. Briefly: Cell cycle arrest in human DU145 cells assessed as accumulation at G0/G1 phase at 2 uM after 48 hrs by propidium iodide staining-based flow cytometric analysis (reference value: 78.96%). It counts as functional.
In assay [5] the test system is DU-145. Briefly: Cell cycle arrest in human DU145 cells assessed as accumulation at G2/M phase at 2 uM after 48 hrs by propidium iodide staining-based flow cytometric analysis (reference value: 15%). Format: functional.
The next assay relates to HepG2. The assay can be described thus: Cytotoxicity against human HepG2 cells after 48 hrs by MTT assay. Format: functional, cell-based. Particulars: HepG2, 48 h. (Formazan colour is commonly taken as a measure of viable cells.)
Assay [6] deals with DU-145. The assay can be described thus: Cell cycle arrest in human DU145 cells assessed as accumulation at sub-G1 phase at 2 uM after 48 hrs by propidium iodide staining-based flow cytometric analysis (reference value: 0.17%). It counts as functional.
The target of assay [7] is T1, Tubulin (Homo sapiens). Briefly: Inhibition of tubulin polymerization (unknown origin) at 5 uM measured every min for 1 hr by fluorescence-based assay. Format: protein-complex assay. Also noted: scale not given: the % may be the effect or the level left.
A further assay concerns MCF7. Briefly: Cytotoxicity against human MCF7 cells after 48 hrs by MTT assay. Particulars: MCF7, 48 h. It counts as functional, cell-based.
Assay [8] concerns DU-145. The assay can be described thus: Cytotoxicity against human DU145 cells after 48 hrs by MTT assay. Format: functional, cell-based. Particulars: DU-145, 48 h.
The subject of a further assay is HeLa. The assay can be described thus: Cytotoxicity against human HeLa cells after 48 hrs by MTT assay. It counts as functional, cell-based.
For assay [9], the system named is DU-145. Briefly: Induction of apoptosis in human DU145 cells assessed as nuclear fragmentation at 2 uM after 24 hrs by Hoechst 33342 staining based confocal microscopy. Format: functional, cell-based.
In assay [10] the test system is DU-145. The assay can be described thus: Cytotoxicity against human DU145 cells assessed as inhibition of colony formation at 2.5 uM after 3 days by microscopy. It counts as functional, cell-based.

SMILES strings stand for the structures. Calls of active or inactive are those of the source. The calls are words filed in the database; no cut-off is given here.

In general, IC50 refers to the point on the concentration scale where inhibition reaches its midpoint. For the compound `COc1ccc(/C=C(/C(=O)O[C@H]2c3cc4c(cc3[C@@H](c3cc(OC)c(OC)c(OC)c3)[C@H]3C(=O)OC[C@@H]32)OCO4)c2ccc(OC)c(OC)c2)cc1OC`, the Activity result was “Dose-dependent effect” at Tubulin (Homo sapiens) [1]; 1.68% with DU-145 [2]; 22.39% with DU-145 [4]; 2.94% in the assay with DU-145 [5]; 73% in the assay with DU-145 [6]; 46.8% on Tubulin (Homo sapiens) [7]. Also, the IC50 stood at 0.71 µM with A549; 5.13 µM in the assay on HepG2; 1.74 µM in the assay with MCF7; 1.4 µM with DU-145 [8]; 2.02 µM in the assay on HeLa. The inhibition entry in the assay with DU-145 [3] was “Active”.

In the case of `COc1ccc(/C(=C\c2cc(OC)c(OC)c(OC)c2)C(=O)O[C@H]2c3cc4c(cc3[C@@H](c3cc(OC)c(OC)c(OC)c3)[C@H]3C(=O)OC[C@@H]32)OCO4)cc1OC`, the IC50 in the assay on A549 worked out at 10.4 µM; in the assay on HepG2, 23.7 µM; with MCF7, 22.9 µM; in the assay with DU-145 [8], 37.8 µM; in the assay with HeLa, 11.8 µM.

Regarding `COc1cc([C@@H]2c3cc4c(cc3[C@H](OC(=O)C#Cc3ccccc3)[C@H]3COC(=O)[C@H]23)OCO4)cc(OC)c1OC`, the outcome with DU-145 [9] was Active. Besides, the IC50 is 1.81 µM in the assay with A549; 1.08 µM in the assay with HepG2; 1.23 µM in the assay on MCF7; 0.79 µM in the assay on DU-145 [8]; 1.12 µM in the assay on HeLa. Further, the inhibition entry in the assay with DU-145 [3] and with DU-145 [10] was “Active” each time. For the same compound, on Tubulin (Homo sapiens) [7], the Activity turned out to be 53.8%.

On to `COc1cc([C@@H]2c3cc4c(cc3[C@H](OC(=O)c3cc([N+](=O)[O-])ccc3N)[C@H]3COC(=O)[C@H]23)OCO4)cc(OC)c1OC`, for which the IC50 in the assay on A549 was 22.2 µM; in the assay with HepG2 it was 27.3 µM; with MCF7, 19.7 µM; in the assay on DU-145 [8], 11.2 µM; in the assay with HeLa, 13.7 µM.

For the compound `COc1ccc(/C(=C\c2cc(OC)c(OC)c(OC)c2)C(=O)O[C@H]2c3cc4c(cc3[C@@H](c3cc(OC)c(OC)c(OC)c3)[C@H]3C(=O)OC[C@@H]32)OCO4)cc1`, the IC50 came out at 13 µM in the assay on A549; 23.7 µM with HepG2; 23.3 µM in the assay on MCF7; 38.1 µM with DU-145 [8]; 15.9 µM in the assay with HeLa.

On to `COc1ccc(/C=C\c2cc(OC)c(OC)c(OC)c2)cc1O`, for which the Activity on Tubulin (Homo sapiens) [7] was 69.4%.

For `COc1ccc(/C(=C\c2ccc(OC)c(OC)c2)C(=O)O[C@H]2c3cc4c(cc3[C@@H](c3cc(OC)c(OC)c(OC)c3)[C@H]3C(=O)OC[C@@H]32)OCO4)cc1`, the IC50 was 18.2 µM with A549; 51.2 µM with HepG2; 17.4 µM in the assay with MCF7; 8.32 µM in the assay on DU-145 [8]; 15.5 µM with HeLa.

On to `COc1cc([C@@H]2c3cc4c(cc3[C@H](O)[C@H]3COC(=O)[C@H]23)OCO4)cc(OC)c1OC` [PODOFILOX], for which the Activity on Tubulin (Homo sapiens) [7] was determined as 66.6%. For the same compound, the IC50 with DU-145 [8] was above 100 µM.

`COc1cc([C@@H]2c3cc4c(cc3[C@H](OC(=O)c3cccc(OC)c3OC)[C@H]3COC(=O)[C@H]23)OCO4)cc(OC)c1OC`: the IC50 in the assay with A549 worked out at 24.3 µM; in the assay on HepG2, 48.6 µM; with MCF7, 21 µM; with DU-145 [8], 50.4 µM; in the assay on HeLa, 13.2 µM.

With `COc1cccc(/C(=C\c2cc(OC)c(OC)c(OC)c2)C(=O)O[C@H]2c3cc4c(cc3[C@@H](c3cc(OC)c(OC)c(OC)c3)[C@H]3C(=O)OC[C@@H]32)OCO4)c1`, the IC50 in the assay with A549 is 24.9 µM; in the assay with HepG2, 27.3 µM; in the assay on MCF7, 20.1 µM; in the assay on DU-145 [8], 18.4 µM; in the assay on HeLa it was 14.1 µM.

Take `COc1ccc(/C(=C\c2ccc(OCc3ccccc3)c(OC)c2)C(=O)O[C@H]2c3cc4c(cc3[C@@H](c3cc(OC)c(OC)c(OC)c3)[C@H]3C(=O)OC[C@@H]32)OCO4)cc1OC`: the IC50 amounted to 24.9 µM with A549; 28 µM in the assay on HepG2; 20.3 µM in the assay on MCF7; 13.4 µM with DU-145 [8]; 15.9 µM in the assay with HeLa.

For the compound `COc1ccc(/C(=C\c2ccc(OC(C)=O)c(OC)c2)C(=O)O[C@H]2c3cc4c(cc3[C@@H](c3cc(OC)c(OC)c(OC)c3)[C@H]3C(=O)OC[C@@H]32)OCO4)cc1OC`, the Activity result on Tubulin (Homo sapiens) [1] is “Dose-dependent effect”; in the assay on DU-145 [2], 5.69%; in the assay on DU-145 [4], 42.8%; in the assay with DU-145 [5], 12.63%; in the assay on DU-145 [6], 38.88%; at Tubulin (Homo sapiens) [7], 51.2%. In addition, the IC50 is 0.91 µM with A549; 10.9 µM in the assay on HepG2; 1.83 µM with MCF7; 1.06 µM in the assay with DU-145 [8]; 2.3 µM in the assay with HeLa. Further, the inhibition result in the assay with DU-145 [3] was “Active”.

Take `COc1ccc(C(=O)O[C@H]2c3cc4c(cc3[C@@H](c3cc(OC)c(OC)c(OC)c3)[C@H]3C(=O)OC[C@@H]32)OCO4)c([N+](=O)[O-])c1`: the IC50 was determined as 25.8 µM with A549; 26.5 µM in the assay with HepG2; 15.3 µM in the assay on MCF7; 14.4 µM with DU-145 [8]; 17.6 µM with HeLa.

With `COc1ccc(/C(=C\c2ccc(OC)c(OCc3ccccc3)c2)C(=O)O[C@H]2c3cc4c(cc3[C@@H](c3cc(OC)c(OC)c(OC)c3)[C@H]3C(=O)OC[C@@H]32)OCO4)cc1OC`, the IC50 in the assay on A549 came to 17.5 µM; in the assay on HepG2, 22.9 µM; with MCF7, 17.6 µM; in the assay on DU-145 [8] it was 33 µM; with HeLa, 14.3 µM.

Turning to `CC#CC(=O)O[C@H]1c2cc3c(cc2[C@@H](c2cc(OC)c(OC)c(OC)c2)[C@H]2C(=O)OC[C@@H]21)OCO3`, the result in the assay with DU-145 [9] was Active. Also, the IC50 with A549 came out at 1.03 µM; with HepG2, 1.47 µM; in the assay on MCF7, 1.35 µM; in the assay on DU-145 [8] it was 1.71 µM; in the assay with HeLa, 1 µM. In addition, the inhibition entry in the assay on DU-145 [3] and in the assay on DU-145 [10] was “Active” each time. Further, on Tubulin (Homo sapiens) [7], the Activity was 62.1%.

For `COc1cccc2c1C(=O)c1c(O)c3c(c(O)c1C2=O)C[C@@](O)(C(=O)CO)C[C@@H]3O[C@H]1C[C@H](N)[C@H](O)[C@H](C)O1` [DOXORUBICIN], the IC50 in the assay with HepG2 is 3.82 µM; with DU-145 [8], 4.06 µM; in the assay with HeLa, 0.9 µM.

With `COc1cc([C@@H]2c3cc4c(cc3[C@H](OC(=O)c3ccccc3Cl)[C@H]3COC(=O)[C@H]23)OCO4)cc(OC)c1OC`, the IC50 came to 34.5 µM in the assay with A549; 24.4 µM in the assay with HepG2; 19.5 µM in the assay on MCF7; 11.2 µM in the assay on DU-145 [8]; 17.1 µM with HeLa.

`COc1cc([C@@H]2c3cc4c(cc3[C@H](OC(=O)c3ccc([N+](=O)[O-])cc3)[C@H]3COC(=O)[C@H]23)OCO4)cc(OC)c1OC`: the Activity entry is “Dose-dependent effect” at Tubulin (Homo sapiens) [1]; 4.24% in the assay with DU-145 [2]; 41.81% in the assay on DU-145 [4]; 13.23% in the assay with DU-145 [5]; 40.72% in the assay on DU-145 [6]; 64% at Tubulin (Homo sapiens) [7]. For the same compound, the IC50 in the assay on A549 is 0.74 µM; in the assay with HepG2 it was 8.83 µM; in the assay with MCF7, 1.56 µM; with DU-145 [8], 1.1 µM; in the assay on HeLa, 2.06 µM. Further, the inhibition entry in the assay with DU-145 [3] was “Active”.
